The text below walks through data of patent US9131685B2, “Compositions comprising a strigolactone compound and a chito-oligosaccharide compound for enhanced plant growth and yield” (Bayer CropScience AG, priority 2009, dated 2015).

For one assay, the system named is wheat seeds. As to the kind of experiment: Germination test on wheat (agar plates, climate chamber). Format: in vivo, wheat (variety Tuareg). The note with it: seed treatment, 10° C. in darkness, after 2 days, average of 5 replicates of 20 seeds. The procedure:
For wheat experiments 20 wheat seeds per treatment of the variety Tuareg were sown on agar plates (1.4% agar). 5 replicates were made. The active ingredient was solved in a solvent and seed treatment was performed with a lab equipment. Plates were incubated at 10° C. in darkness. After 2 days the germination rate and root length were assessed.
(§1) average of 5 replicates of 20 seeds

The test system of the next assay is soybean. As to the kind of experiment: Greenhouse experiments on soybean (seed treatment, root weight and leaf area). The conditions noted are these: sand/perlite with arbuscular mycorrhizal inoculum, 6 weeks greenhouse, average of 3 replicates of 5 plants. It is filed as in vivo, soybean (variety Cordoba). The protocol: Test is performed in the greenhouse. 5 soybean seeds per treatment of the variety Cordoba were sown in 500 ml rose pots (7×7×18 cm) containing a mix of sand and perlite (1:1). 3 replicates were made. The active ingredient was solved in a solvent and seed treatment was performed with a lab equipment.
To inoculate with arbuscular mycorrhizal fungi, 10 g inoculum (Vaminoc; MicroBio Ltd.) were mixed with 1 l of the sand-perlite mixture.
Seeds were covered by 3 cm of LECA (light expanded clay aggregate). Pots were incubated in the greenhouse for 6 weeks at 22° C./15° C. (day/night) and 80% relative humidity. Assessment consisted of root weight and leaf area.
average of 3 replicates of 5 plants

Another assay concerns soybean seeds. As to the kind of experiment: Germination test on soybean (agar plates, climate chamber). Format: in vivo, soybean (variety Cordoba). The conditions noted are these: seed treatment, 10° C. in darkness, after 4 days, average of 5 replicates of 20 seeds. The procedure:
Test is performed in a climate chamber. 20 soybean seeds per treatment of the variety Cordoba were sown on agar plates (0.8% agar). 5 replicates were made. The active ingredient was solved in a solvent and seed treatment was performed with a lab equipment. Plates were incubated at 10° C. in darkness. After 4 days the germination rate and root length were assessed.
as §1

Another assay has as its system Winter wheat. The assay is described as follows: Field trials 2: winter wheat, Germany (Bergisches Land). It is filed as in vivo, Winter wheat (variety Dekan). The note with it: in comparison to the untreated control. The procedure: b) Field trials 2: Winter wheat: Germany (Bergisches Land):
Seeds of the variety “Dekan” were planted on December with a seed density of 400 seeds/m^2 on a non-fertilized soil. The plot size was 6 m×2.5 m (=15 m^2) and four randomised replicates were used. The application of plant protection products were carried out according to the good agricultural practise. The evaluation of different growth parameters was done during the season.
Dosages Winter Wheat (Bergisches Land):
Base: Insecticide (I): Imidacloprid; Fungicides (F): Fluoxastrobin & Tebuconazole & Prothioconazole.

In the assay on wheat seeds, `CC1=CC(O/C=C2/C(=O)OC3c4ccccc4CC23)OC1=O` (stereo not shown) [Compound A1] displayed a Germination rate of 27% and a Root length of 3.04 cm. Further, in the assay on soybean, the “Leaf Area” value was 35.67 cm^2 and the Root weight amounted to 11.13 g. In addition, in the assay with soybean seeds, the Germination rate turned out to be 63% and the Root length worked out at 5.19 cm.

With `CCCCCC/C=C\CCCOc1cccc(C(=O)NC2C(O[C@@H]3C(CO)OC(OC4C(CO)O[C@@H](O[C@@H]5C(CO)OC(OC6C(CO)OC(O)C(NC(C)=O)C6O)C(NC(C)=O)C5O)C(NC(C)=O)C4O)C(NC(C)=O)C3O)OC(CO)[C@@H](O)C2O)c1` (stereo partly shown) [Compound B1], in the assay with wheat seeds, the Germination rate is listed as 8% and the Root length is reported as 2.34 cm. Further, the “yield in dt/ha, in words” value with Winter wheat is listed as “increased yield”. Moreover, in the assay on soybean, the “Leaf Area” value amounted to 36.82 cm^2 and the Root weight amounted to 9.19 g. In the assay with soybean seeds, this compound had a Germination rate of 58% and a Root length of 5.64 cm.

For the compound `CCCCCC/C=C\CCCOc1cccc(C(=O)NC2C(O)[C@H](O)C(CO)O[C@H]2O[C@@H]2C(CO)O[C@@H](O[C@@H]3C(CO)O[C@@H](O[C@@H]4C(CO)O[C@@H](O[C@@H]5C(CO[C@@H]6OC(C)[C@@H](O)C(O)C6O)OC(O)C(NC(C)=O)C5O)C(NC(C)=O)C4O)C(NC(C)=O)C3O)C(NC(C)=O)C2O)c1` (stereo partly shown) [Compound B2], in the assay with wheat seeds, the Germination rate turned out to be 18% and the Root length is 2.02 cm. For the same compound, in the assay with soybean seeds, the Germination rate worked out at 68% and the Root length was 5.61 cm.

With `CCCCCC/C=C\CCCOc1cccc(C(=O)NC2C(O[C@@H]3C(CO)OC(OC4C(CO)O[C@@H](O[C@@H]5C(CO)OC(OC6C(CO[C@@H]7OC(C)C(O)C(O)C7OC)OC(O)C(NC(C)=O)C6O)C(NC(C)=O)C5O)C(NC(C)=O)C4O)C(NC(C)=O)C3O)OC(CO)[C@@H](O)C2O)c1` (stereo partly shown) [Compound B3], in the assay on wheat seeds, the Germination rate is listed as 17% and the Root length is on record as 2.18 cm. In the assay on soybean seeds, this compound came in with a Germination rate of 59% and a Root length of 5.13 cm.

`OC(Cc1ccccc1Cl)(Cn1nc[nH]c1=S)C1(Cl)CC1` (stereo not shown) [Prothioconazole, reference compound]: in the assay with soybean, the “Leaf Area” value came out at 20.58 cm^2 and the Root weight worked out at 16.8 g.

Regarding `CON=C(C(=O)OC)c1ccccc1CON=C(C)c1cccc(C(F)(F)F)c1` [Trifloxystrobin, reference compound], in the assay with soybean, the “Leaf Area” value is 24.80 cm^2 and the Root weight is on record as 18.2 g.
